Series [1] has as its system BALB/c mice. The experiment in a line: Imiquimod-induced psoriasis-like skin inflammation in mice. The series is classed as in vivo, mouse. The settings on record: 20 mg/kg intraperitoneal, 30 min before 5% IMQ cream, daily for 7 days. How it is done: (§1) Male BALB/c mice aged 7-8 weeks were purchased from BioLASCO (Taipei, Taiwan) and maintained in a room with 12 hr light/dark cycles. Standard laboratory chow and water were available ad libitum. All animal experimental procedures were performed in accordance with guidelines and approved by the Institutional Animal Care and Use Committee of Chang Gung University.
Male BALB/c mice aged 7-8 weeks were used for the development of the imiquimod-induced psoriatic-like plaque model. The dorsal skin of the mice were shaved and received a daily topical dose of 62.5 mg of 5% imiquimod (IMQ) cream (Aldara, MEDA Pharma, Sweden) with or without a test compound (e.g., HKI-4971) treatment by intraperitoneal injection for 7 consecutive days.
Tissue samples were fixed in 10% neutral buffered formalin and embedding in paraffin blocks. Sections of the samples were prepared at 5 μm thickness and stained with hematoxylin and eosin (H&E). For immunohistochemistry staining, the sections were incubated with primary antibodies against Ly6g, MPO, and ki67 then the secondary antibody was applied for the detection of the primary antibody according to the manufacturer's instructions of the SuperPicture Polymer Detection Kit (Thermo Fisher, USA). Finally, the section slides were subsequently stained with DAB chromogen and counterstained with hematoxylin. […]

Series [2] concerns BALB/c mice. The experiment in a line: LPS-induced acute lung injury (ALI) model in mice. The following applies: 20 mg/Kg intravenous 1 hr before intratracheal LPS, 5 hrs. The series is classed as in vivo, mouse. How it is done:
as §1
Mice were pre-treated with a candidate compound (e.g., HKI-4971), which was dissolved in 50 μl saline solution containing 10% DMSO and 20% Kolliphor EL (Sigma-Aldrich, USA), by intravenous injection. […]
Lung tissues were homogenized in PBS (50 Mm, pH 6.0) containing 0.5% (w/v) hexadecyltrimethylammonium bromide (HETAB) (Sigma-Aldrich, USA) by using the MagNA Lyser Instrument (Roche, Germany), and was further centrifuged at 12,000×g for 20 min at 4° C. to remove the insoluble material. The peroxidase activity was measured as the oxidation of o-Dianisidine dihydrochloride (Sigma-Aldrich, USA). […] The absorption was determined spectrophotometrically at 405 nm. […]
In this example, the Gram-negative bacterial endotoxin LPS induced ALI in mice was employed to mimic ARDS in human, and the effect of HKI-4971 was evaluated. […]

Series [3] has as its system BALB/c mice. The experiment in a line: Liver and kidney function (ALT, AST, BUN, creatinine) in blood of imiquimod-induced mice. The series is classed as in vivo, mouse. The settings on record: blood samples, 20 mg/kg intraperitoneal, alone or with IMQ, 7 days; FIG. 3 (n=3). How it is done: In this example, the effect of HKI-4971 (or compound 13) on the development of psoriasis was investigated using the well-established psoriasis animal model, in which imiquimod (IMQ) was used to induce psoriasis-like skin inflammation. Briefly, BALB/c mice are pre-treated by intraperitoneal injection of HKI-4971 (20 mg/kg) for 30 min before 5% IMQ cream was topically administered onto the back of the mice every day for 7 days. Then, skin samples taken from these animals were subjected to microscopy examination and immunohistochemistry staining, while blood samples were subjected to analysis for liver and kidney functions. Results are depicted in FIGS. 1 to 3.
Blood samples taken from IMQ- or IMQ+HKI-4971 treated animals were analyzed for the levels of alanine aminotransferase and aspartate transaminase, which were used as indicators for assessing liver function; and the levels of blood […] nitrogen (BUN) and creatinine (CRE), which were used as indicators for assessing the kidney function. Results are illustrated in FIG. 3.

The test system of series [4] is human neutrophils. The experiment in a line: Elastase release in fMLF/CB-activated human neutrophils (MeO-Suc-Ala-Ala-Pro-Val-p-nitroanilide substrate). The format is cell-based. The following applies: Neutrophil, neutrophils in response to fMLF, Table 2, read-out: IC50 for suppressing elastase release. How it is done:
(§2) Human neutrophils were obtained in lipopolysaccharide-free conditions by means of dextran sedimentation and Ficoll centrifugation.
Methoxysuccinyl-Ala-Ala-Pro-Val-p-nitroanilide was employed as the elastase substrate for the determination of elastase release. Briefly, after supplementation with Methoxysuccinyl-Ala-Ala-Pro-Val-p-nitroanilide (100 μM), neutrophils (6×10^5/mL) were equilibrated at 37° C. for 2 min and incubated with a candidate compound at various concentrations for 5 min. Cells were then activated with fMLF (0.1 μM) for 10 min in the pre-process of CB (0.5 μg/mL) for 3 min, and changes in absorbance at 405 nm were continuously monitored to evaluate elastase release. Results are expressed as the percentage of elastase release in the drug-free control group, DMSO.

Series [5] concerns human neutrophils. The experiment in a line: Superoxide anion (O2•−) generation in fMLF/CB-activated human neutrophils (SOD-inhibitable ferricytochrome c reduction). The series is classed as cell-based. The following applies: at 10 μM concentration; FMLP/CB-induced human neutrophils; mean ± S.E.M. (n = 3-5). How it is done: as §2
O2^•− production was determined based on the SOD-inhibitable reduction of ferricytochrome c. Briefly, neutrophils (6×10^5/mL) were treated with a candidate compound at 37° C. at various concentrations (0.001 to 10 μM) for 5 min after being supplementing with 0.5 mg/mL ferricytochrome c and 1 mM Ca^2+. Cells were then activated with fMLF (0.1 μM) for 10 min in the pre-process of cytochalasin B (CB, 1 μg/mL) for 3 min. Changes in absorbance with the reduction of ferricytochrome c at 550 nm were continuously monitored in a double-beam, six-cell positioner spectrophotometer with constant stirring (Hitachi U-3010, Tokyo, Japan). Calculations were based on the differences in the reactions with and without SOD (100 U ml^−1) divided by the extinction coefficient for the reduction of ferricytochrome c (E=21.1 mM^−1/10 mm).

Regarding `Cn1nc(N)c2c(Nc3ccc(O)cc3)nc3ccccc3c21` [Compound 13, 4-(4-Hydroxyanilino)-1-methyl-1H-pyrazolo[4,3-c]quinolin-3-amine], the “Severity or progression of IMQ-induced psoriasis” value in series [1] (FIG. 1) was “reduce the severity or progression”. In addition, the “Immunostaining of skin: markers for cell proliferation (ki-67) and for neutrophils (Ly6g and MPO)” value in series [1] (FIG. 2) is listed as “reduced”. In series [2] (FIG. 4(A) (n=3)), the “MPO activity in lung tissues” value was “suppressed”. The “LPS-induced neutrophil infiltration and lung injury (H&E, Ly6g and MPO staining of lung sections)” value in series [2] (FIG. 4(B)) is “significantly alleviated”. Also, the “Liver function (alanine aminotransferase, aspartate transaminase) and kidney function (BUN, creatinine)” value in series [3] is “did not result in significant damage”. Further, the IC50 in series [4] came to 32 ± 17 nM.
With `Cc1ccc(Nc2nc3ccccc3c3onc(N)c23)cc1` [Compound 33, 4-(4-Methylanilino)isoxazolo[4,5-c]quinolin-3-amine], the “Superoxide Anion Inhibition %” value in series [5] is recorded as “enhanced”.
For `Nc1noc2c1c(Nc1ccc(C(F)(F)F)cc1)nc1ccccc12` [Compound 30, 4-(4-Trifluoromethylanilino)isoxazolo[4,5-c]quinolin-3-amine], the “Superoxide Anion Inhibition %” value in series [5] was “enhanced”.
With `CSc1ccc(Nc2nc3ccccc3c3onc(N)c23)cc1` [Compound 25, 4-(4-Methylthioanilino)isoxazolo[4,5-c]quinolin-3-amine], the “Superoxide Anion Inhibition %” value in series [5] is on record as “enhanced”.

A word on the IC50: it is the concentration that inhibits the measured activity by half.

These data come from US10654848B1, “Neutrophil inflammation inhibitor and uses thereof” (Chang Gung University of Science and Technology, priority 2018, dated 2020).
